The values below come from ChEMBL document CHEMBL6153103, “Novel Bioorthogonal Theranostic Scaffold Enables on-Target Drug Release and Real Time Monitoring In Vivo” (J Med Chem, 2025).

The test system of data set [1] is A549. As to the kind of experiment: Cytotoxicity against human A549 cells assessed as cell viability incubated for 72 hrs by CCK-8 assay. The conditions noted are these: A549, 72 h. It is filed as functional, cell-based.
Data set [2] relates to A549. As to the kind of experiment: Cytotoxicity against human A549 cells assessed as inhibition of cell proliferation upto 20 uM incubated for 72 hrs by CCK-8 assay. It counts as functional, cell-based.
Data set [3] deals with HeLa. Briefly: Cytotoxicity against human HeLa cells assessed as inhibition of cell proliferation incubated for 72 hrs by CCK-8 assay. It counts as functional, cell-based.
Data set [4] in a line: Prodrug activation in human A549 cells xenografted in BALB/c nude mouse assessed as blue fluorescence intensity in tumor at 5 mg/kg, ip administered for 1 hr by confocal microscopic analysis. Particulars: in vivo. It counts as organism-based.
The nature of data set [5]: Prodrug release in human A549 cells xenografted in BALB/c nude mouse assessed as DOX release by measuring change in green fluorescence intensity in tumor at 5 mg/kg, ip administered for 1 hr by DAPI staining based confocal microscopic analysis. It counts as ADME, organism-based. Particulars: in vivo.
Data set [6] concerns A549. Briefly: Cytotoxicity against human A549 cells assessed as inhibition of cell proliferation incubated for 72 hrs by CCK-8 assay. It counts as functional, cell-based. Particulars: A549, 72 h.
Data set [7] can be described thus: Drug uptake in human HEK293T cells assessed as increase in blue fluorescence intensity at 100 uM incubated for 1 hr by confocal fluorescence microscopic analysis. It is filed as ADME, cell-based. Particulars: hek-293t.
Data set [8] is described as follows: Prodrug release in human A549 cells assessed as DOX release by measuring increase in fluorescence intensity at 50 uM measured after 2 hrs by confocal microscopy. It is filed as ADME, cell-based. The conditions noted are these: a549, 2 h.
Data set [9] can be described thus: Drug uptake in human HeLa cells assessed as increase in blue fluorescence intensity at 100 uM incubated for 1 hr by confocal fluorescence microscopic analysis. It counts as ADME, cell-based.
Data set [10] deals with A549. As to the kind of experiment: Cytotoxicity against human A549 cells assessed as inhibition of cell proliferation incubated for 72 hrs in presence of 60 uM 4-(6-methyl-1,2,4,5-tetrazin-3-yl)benzyl 3-(2-hydroxyethoxy)-2,3-dihydrophenanthro[9,10-b][1,4]dioxine-7-carboxylate by CCK-8 assay. It counts as functional, cell-based. The conditions noted are these: A549, 72 h.

Data set [11] has as its system A549. Briefly: Cytotoxicity against human A549 cells assessed as inhibition of cell proliferation incubated for 72 hrs in presence of 10 uM 4-(6-methyl-1,2,4,5-tetrazin-3-yl)benzyl 3-(2-hydroxyethoxy)-2,3-dihydrophenanthro[9,10-b][1,4]dioxine-7-carboxylate by CCK-8 assay. It is filed as functional, cell-based. Particulars: A549, 72 h.
Data set [12] concerns A549. Briefly: Cytotoxicity against human A549 cells assessed as inhibition of cell proliferation incubated for 72 hrs in presence of 80 uM 4-(6-methyl-1,2,4,5-tetrazin-3-yl)benzyl 3-(2-hydroxyethoxy)-2,3-dihydrophenanthro[9,10-b][1,4]dioxine-7-carboxylate by CCK-8 assay. It counts as functional, cell-based. Particulars: A549, 72 h.
Data set [13] in a line: Prodrug release in human A549 cells assessed as DOX release by measuring increase in fluorescence intensity at 100 uM measured after 2 hrs by confocal microscopy. It is filed as ADME, cell-based. The conditions noted are these: a549, 2 h.
The nature of data set [14]: Cytotoxicity against human HEK293T cells assessed as inhibition of cell proliferation incubated for 72 hrs by CCK-8 assay. It counts as toxicity, cell-based, HEK-293T.
For data set [15], the system named is HeLa. Briefly: Cytotoxicity against human HeLa cells assessed as inhibition of cell proliferation incubated for 72 hrs 15 uM of (4-((2-((10-(((4-(6-methyl-1,2,4,5-tetrazin-3-yl)benzyl)oxy)carbonyl)-2,3-dihydrophenanthro[9,10-b][1,4]dioxin-2-yl)oxy)ethoxy)carbonyl)phenyl)boronic acid by CCK-8 assay. It counts as functional, cell-based.
Data set [16] is described as follows: Cytotoxicity against human HEK293T cells assessed as inhibition of cell proliferation incubated for 72 hrs 15 uM of (4-((2-((10-(((4-(6-methyl-1,2,4,5-tetrazin-3-yl)benzyl)oxy)carbonyl)-2,3-dihydrophenanthro[9,10-b][1,4]dioxin-2-yl)oxy)ethoxy)carbonyl)phenyl)boronic acid by CCK-8 assay. It is filed as toxicity, cell-based, HEK-293T.
The test system of data set [17] is HeLa. Briefly: Cytotoxicity against human HeLa cells assessed as inhibition of cell proliferation incubated for 72 hrs 15 uM of 4-(6-methyl-1,2,4,5-tetrazin-3-yl)benzyl 3-(2-hydroxyethoxy)-2,3-dihydrophenanthro[9,10-b][1,4]dioxine-7-carboxylate by CCK-8 assay. It counts as functional, cell-based.
Data set [18] concerns A549. Briefly: Cytotoxicity against human A549 cells assessed as inhibition of cell proliferation incubated for 72 hrs in presence of 15 uM 4-(6-methyl-1,2,4,5-tetrazin-3-yl)benzyl 3-(2-hydroxyethoxy)-2,3-dihydrophenanthro[9,10-b][1,4]dioxine-7-carboxylate by CCK-8 assay. It is filed as functional, cell-based. The conditions noted are these: A549, 72 h.
Data set [19] is described as follows: Cytotoxicity against human HEK293T cells assessed as inhibition of cell proliferation incubated for 72 hrs 15 uM of 4-(6-methyl-1,2,4,5-tetrazin-3-yl)benzyl 3-(2-hydroxyethoxy)-2,3-dihydrophenanthro[9,10-b][1,4]dioxine-7-carboxylate by CCK-8 assay. It counts as toxicity, cell-based, HEK-293T.

The structures appear in SMILES notation. Activity calls are given as the source filed them. No cut-off for these calls is given here.

`Cc1nnc(-c2ccc(COC(=O)c3ccc4c5c(c6ccccc6c4c3)OCC(OCCO)O5)cc2)c2c1CCCCCC2` (centres undefined): the EC50 in the data set with A549 [1] was greater than 50000 nM. In addition, the outcome in the data set with A549 [2] was Active.

For `COc1cccc2c1C(=O)c1c(O)c3c(c(O)c1C2=O)C[C@@](O)(C(=O)CO)C[C@@H]3O[C@H]1C[C@H](N)[C@H](O)[C@H](C)O1` [DOXORUBICIN], the half-maximal inhibitory concentration (IC50) in the data set on HeLa [3] stood at 14 nM.

Regarding `Cc1nnc(-c2ccc(COC(=O)c3ccc4c5c(c6ccccc6c4c3)OCC(OCCOC(=O)c3ccc(B(O)O)cc3)O5)cc2)nn1` (centres undefined), the Drug metabolism result in data set [4] is “metabolite_notdetected”; in [5], “metabolite_detected”.

With `CO[C@@]12[C@H](COC(N)=O)C3=C(C(=O)C(C)=C(N)C3=O)N1C[C@@H]1N[C@@H]12` [MITOMYCIN], the 50% inhibitory concentration (IC50) with A549 [6] was 30 nM.

For the compound `Cc1nnc(-c2ccc(COC(=O)c3ccc4c5c(c6ccccc6c4c3)OCC(OCCO)O5)cc2)nn1` (centres undefined), the Drug uptake entry in [7] and in data set [9] was “Not_active” in each case. Moreover, in the data set on A549 [1], the half-maximal effective concentration (EC50) was greater than 50000 nM. In addition, the Drug metabolism entry in [8] is reported as “metabolite_detected”. Moreover, in the data set with A549 [2], the outcome was Active.

Regarding `[C-]#[N+]CCCOC(=O)N1[C@H]2[C@@H]1CN1C3=C(C(=O)C(N)=C(C)C3=O)[C@@H](COC(N)=O)[C@@]21OC`, the half-maximal inhibitory concentration (IC50) with A549 [10] was found to be 239 nM; with A549 [11], 313 nM; with A549 [6] it was 359 nM; in the data set with A549 [12] it was 239 nM.

With `COc1cccc2c1C(=O)c1c(O)c3c(c(O)c1C2=O)C[C@@](O)(C(=O)CO)C[C@@H]3O[C@H]1C[C@H](NC(=O)OC2/C=C/CCCCC2)[C@H](O)[C@H](C)O1` (some centres undefined), the Drug metabolism result in [4] is recorded as “metabolite_notdetected”; in data set [13], “metabolite_detected”; in data set [5], “metabolite_detected”. Also, the Drug uptake entry in data set [7] and in data set [9] was “Not_active” in each case. Besides, the IC50 in the data set with A549 [11] was 67 nM; in the data set on A549 [6], 537 nM; in the data set with HeLa [15], 30 nM; with HeLa [3] it was 989 nM; with HeLa [17] it was 59 nM; in the data set with A549 [18], 58 nM. Moreover, the IC50 at 72 h in [14] was determined as 1150 nM; in data set [16], 145 nM; in [19] it was 126 nM.
